Activity calls are given as the source filed them. The calls are words filed in the database; no cut-off is given here.
Tests used:
[1] = tested on: Escherichia coli; assay: Antibacterial activity against Escherichia coli assessed as bacterial growth inhibition preincubated with compound for 15 mins followed by light irradiated with 730 nm, 40 J/cm2 and measured after 24 hrs by broth microdilution method; type: functional; settings: light or radiation study, 24.25 h, time 1455 min
[2] = tested on: Candida albicans; assay: Antifungal activity against Candida albicans assessed as fungal growth inhibition measured after 24 hrs by broth microdilution method; type: functional
[3] = Induction of singlet oxygen quantum yield under 418 nm light irradiation by DPBF based assay; type: functional
[4] = Photophysical property of the compound assessed as fluorescence quantum yield by UV-vis spectrophotometric analysis; type: physicochemical
[5] = tested on: Candida albicans; assay: Antifungal activity against Candida albicans assessed as fungal growth inhibition preincubated with compound for 15 mins followed by light irradiated with 730 nm, 40 J/cm2 and measured after 24 hrs by broth microdilution method; type: functional; settings: light or radiation study, 24.25 h, time 1455 min
[6] = tested on: Staphylococcus aureus; assay: Antibacterial activity against Staphylococcus aureus assessed as bacterial growth inhibition preincubated with compound for 15 mins followed by light irradiated with 730 nm, 40 J/cm2 and measured after 24 hrs by broth microdilution method; type: functional; settings: light or radiation study, 24.25 h, time 1455 min
[7] = Photophysical property of the compound assessed as singlet oxygen quantum yield by UV-vis spectrophotometric analysis; type: physicochemical
[8] = tested on: Escherichia coli; assay: Antibacterial activity against Escherichia coli assessed as bacterial growth inhibition measured after 24 hrs by broth microdilution method; type: functional
[9] = tested on: Staphylococcus aureus; assay: Antibacterial activity against Staphylococcus aureus assessed as bacterial growth inhibition measured after 24 hrs by broth microdilution method; type: functional

SMILES | MIC [1] [µM] | MIC [2] [µM] | Activity [3] | Activity [4] | MIC [5] [µM] | MIC [6] [µM] | Activity [7] | MIC [8] [µM] | MIC [9] [µM]
C[N+](C)(C)CCCCOc1ccc(-c2c3nc(c(-c4ccc(OCCCC[N+](C)(C)C)cc4)c4[nH]c(c(-c5ccc(OCCCC[N+](C)(C)C)cc5)c5nc(c(-c6ccc(OCCCC[N+](C)(C)C)cc6)c6[nH]c2c2cc7ccccc7cc62)-c2cc6ccccc6cc2-5)c2cc5ccccc5cc42)-c2cc4ccccc4cc2-3)cc1.[Br-].[Br-].[Br-].[Br-] | > 64 | 64 | Active | 0.08 | 64 | 16 | 0.41 | > 64 | 32
C[N+](C)(C)CCCCCOc1ccc(-c2c3nc(c(-c4ccc(OCCCCC[N+](C)(C)C)cc4)c4[nH]c(c(-c5ccc(OCCCCC[N+](C)(C)C)cc5)c5nc(c(-c6ccc(OCCCCC[N+](C)(C)C)cc6)c6[nH]c2c2cc7ccccc7cc62)-c2cc6ccccc6cc2-5)c2cc5ccccc5cc42)-c2cc4ccccc4cc2-3)cc1.[Br-].[Br-].[Br-].[Br-] | > 64 | 64 | Active | 0.07 | 64 | 16 | 0.47 | > 64 | 64
CC[N+](C)(CC)CCCCCOc1ccc(-c2c3nc(c(-c4ccc(OCCCCC[N+](C)(CC)CC)cc4)c4[nH]c(c(-c5ccc(OCCCCC[N+](C)(CC)CC)cc5)c5nc(c(-c6ccc(OCCCCC[N+](C)(CC)CC)cc6)c6[nH]c2c2cc7ccccc7cc62)-c2cc6ccccc6cc2-5)c2cc5ccccc5cc42)-c2cc4ccccc4cc2-3)cc1.[Br-].[Br-].[Br-].[Br-] | > 64 | 64 | Active | 0.07 | 64 | 16 | 0.67 | > 64 | 32
CC[N+](C)(CC)CCCCCCOc1ccc(-c2c3nc(c(-c4ccc(OCCCCCC[N+](C)(CC)CC)cc4)c4[nH]c(c(-c5ccc(OCCCCCC[N+](C)(CC)CC)cc5)c5nc(c(-c6ccc(OCCCCCC[N+](C)(CC)CC)cc6)c6[nH]c2c2cc7ccccc7cc62)-c2cc6ccccc6cc2-5)c2cc5ccccc5cc42)-c2cc4ccccc4cc2-3)cc1.[Br-].[Br-].[Br-].[Br-] | > 64 | 64 | Active | 0.07 | 64 | 64 | 0.68 | > 64 | 64
C[N+](C)(C)CCCCCCOc1ccc(-c2c3nc(c(-c4ccc(OCCCCCC[N+](C)(C)C)cc4)c4[nH]c(c(-c5ccc(OCCCCCC[N+](C)(C)C)cc5)c5nc(c(-c6ccc(OCCCCCC[N+](C)(C)C)cc6)c6[nH]c2c2cc7ccccc7cc62)-c2cc6ccccc6cc2-5)c2cc5ccccc5cc42)-c2cc4ccccc4cc2-3)cc1.[Br-].[Br-].[Br-].[Br-] | > 64 | 64 | Active | 0.07 | 64 | 16 | 0.48 | > 64 | 64
[Br-].[Br-].[Br-].[Br-].c1cc[n+](CCCCCOc2ccc(-c3c4nc(c(-c5ccc(OCCCCC[n+]6ccccc6)cc5)c5[nH]c(c(-c6ccc(OCCCCC[n+]7ccccc7)cc6)c6nc(c(-c7ccc(OCCCCC[n+]8ccccc8)cc7)c7[nH]c3c3cc8ccccc8cc73)-c3cc7ccccc7cc3-6)c3cc6ccccc6cc53)-c3cc5ccccc5cc3-4)cc2)cc1 | > 64 | 64 | Active | 0.08 | 32 | 32 | 0.5 | > 64 | 64

From ChEMBL document CHEMBL6182869, “Tetracationic tetraaryltetranaphtho[2,3]porphyrins for photodynamic inactivation against Staphylococcus aureus biofilm” (Eur J Med Chem, 2025)
